Reference: patent US20230027026A1, “FUSED PYRIMIDINE COMPOUNDS, COMPOSITIONS AND MEDICINAL APPLICATIONS THEREOF” (JUBILANT BIOSYS LIMITED, priority 2019, published 2023)
pIC50: −log10 of the molar value. Structures can show the parent of a compound that is named as a salt. Where two headings read alike, the source gives them in different places.

Experiments:
Format in all cases: cell-based
[1] = tested on: A431 cells; experiment: Cellular proliferation (Alamar Blue) assay, A431; conditions: Homo sapiens; for pIC50: A-431, A431 cells, 72 hr, Alamar Blue, read-out: A431 IC50
Description: (§1) Example 3: Cellular Proliferation (Alamar Blue) Assays
(§2) • 1. EGFR(D770_N771insSVD) expressing Ba/F3 stable cell line • 2. EGFR (A767_dupASV) expressing Ba/F3 stable cell line • 3. A431 cells • 4. BTER2 (A775_G776insYVMA) expressing Ba/F3 stable cell line • 5. BTER2 (WT) expressing Ba/F3 stable cell line • 6. BT-474 cells
(§3) • 1. Seed cells at 5000 for A431 and 15,000 cells for Ba/F3 in 100 μL/well in complete media (for A431: DMEM with 10% FBS and for Ba/F3 cells: RPMI with 10% FBS) in 96-well tissue culture plate. Leave outer wells without cells for background measurements. Incubate at 37 degree Celsius in 5% CO2 humidified incubator for 16-18 hours. • 2. Add 0.025 ml of 5× concentration compound dilution or DMSO control. Final compound concentration range is 10-0.0005 μM prepared in 3-fold serial dilutions. Incubate for 72 hr at 37 degree Celsius in […] humidified incubator. • 3. Add 0.0125 mL Alamar Blue™ reagent to each well with multi-channel pipette and tap gently on each side of the plate to mix. Incubate for 3 hours at 37 degree Celsius in […] humidified incubator. • 4. Read plates on fluorescence reader (Tecan Spark Control, Device: Spark, Serial #: 1801006040) at 540 nm excitation, 590 nm emission wavelength. • 5. Data analysis was performed using XLfit 5.5.0.5.

[2] = molecular target: EGFR(D770_N771insSVD) expressing Ba/F3 stable cell line (Homo sapiens, UniProt P00533, DUP768-770, cells depend on it); experiment: Cellular proliferation (Alamar Blue) assay, EGFR D770_N771insSVD Ba/F3; conditions: EGFR D770_N771insSVD Ba/F3, 72 hr, read-out: D770 IC50
Chain of EGFR(D770_N771insSVD) expressing Ba/F3 stable cell line (P00533 with tags, fused parts or gaps DUP768-770): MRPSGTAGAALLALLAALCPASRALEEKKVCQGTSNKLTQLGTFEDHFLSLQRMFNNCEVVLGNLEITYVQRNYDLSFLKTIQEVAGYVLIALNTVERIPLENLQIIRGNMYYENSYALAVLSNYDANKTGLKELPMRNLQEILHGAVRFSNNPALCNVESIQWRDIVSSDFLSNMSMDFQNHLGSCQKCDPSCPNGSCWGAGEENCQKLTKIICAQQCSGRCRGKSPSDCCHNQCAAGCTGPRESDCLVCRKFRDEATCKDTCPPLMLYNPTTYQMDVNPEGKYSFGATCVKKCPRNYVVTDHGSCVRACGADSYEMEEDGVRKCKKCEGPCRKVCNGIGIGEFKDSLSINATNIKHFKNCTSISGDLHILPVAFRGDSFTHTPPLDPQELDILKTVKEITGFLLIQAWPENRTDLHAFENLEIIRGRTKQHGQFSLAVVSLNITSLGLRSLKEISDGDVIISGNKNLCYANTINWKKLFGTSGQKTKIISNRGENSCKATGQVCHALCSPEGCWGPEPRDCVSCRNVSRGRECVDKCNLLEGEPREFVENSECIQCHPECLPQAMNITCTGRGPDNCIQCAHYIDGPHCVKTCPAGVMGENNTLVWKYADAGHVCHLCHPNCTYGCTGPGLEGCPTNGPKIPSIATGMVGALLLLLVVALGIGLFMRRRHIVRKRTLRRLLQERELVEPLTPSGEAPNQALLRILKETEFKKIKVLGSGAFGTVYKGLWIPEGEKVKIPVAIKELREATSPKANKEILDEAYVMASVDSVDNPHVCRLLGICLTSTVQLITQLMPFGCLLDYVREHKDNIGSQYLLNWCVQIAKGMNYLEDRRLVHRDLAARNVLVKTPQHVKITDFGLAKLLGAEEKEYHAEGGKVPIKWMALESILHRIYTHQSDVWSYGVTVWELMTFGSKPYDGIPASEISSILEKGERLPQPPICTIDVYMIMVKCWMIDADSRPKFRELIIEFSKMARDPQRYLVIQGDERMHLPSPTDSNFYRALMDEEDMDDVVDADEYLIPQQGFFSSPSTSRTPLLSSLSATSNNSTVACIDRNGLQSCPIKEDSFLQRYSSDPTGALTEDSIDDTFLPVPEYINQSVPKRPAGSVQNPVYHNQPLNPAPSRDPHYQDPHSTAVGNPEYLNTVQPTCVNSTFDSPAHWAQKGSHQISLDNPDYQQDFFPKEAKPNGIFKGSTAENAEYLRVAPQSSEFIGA
Description: as §1, §2, §3

[3] = molecular target: EGFR (A767_dupASV) expressing Ba/F3 stable cell line (Homo sapiens, UniProt P00533, DUP767-769, cells depend on it); experiment: Cellular proliferation (Alamar Blue) assay, EGFR A767_dupASV Ba/F3; conditions: EGFR A767_dupASV Ba/F3, 72 hr, read-out: A767 IC50
Chain of EGFR (A767_dupASV) expressing Ba/F3 stable cell line (P00533 with tags, fused parts or gaps DUP767-769): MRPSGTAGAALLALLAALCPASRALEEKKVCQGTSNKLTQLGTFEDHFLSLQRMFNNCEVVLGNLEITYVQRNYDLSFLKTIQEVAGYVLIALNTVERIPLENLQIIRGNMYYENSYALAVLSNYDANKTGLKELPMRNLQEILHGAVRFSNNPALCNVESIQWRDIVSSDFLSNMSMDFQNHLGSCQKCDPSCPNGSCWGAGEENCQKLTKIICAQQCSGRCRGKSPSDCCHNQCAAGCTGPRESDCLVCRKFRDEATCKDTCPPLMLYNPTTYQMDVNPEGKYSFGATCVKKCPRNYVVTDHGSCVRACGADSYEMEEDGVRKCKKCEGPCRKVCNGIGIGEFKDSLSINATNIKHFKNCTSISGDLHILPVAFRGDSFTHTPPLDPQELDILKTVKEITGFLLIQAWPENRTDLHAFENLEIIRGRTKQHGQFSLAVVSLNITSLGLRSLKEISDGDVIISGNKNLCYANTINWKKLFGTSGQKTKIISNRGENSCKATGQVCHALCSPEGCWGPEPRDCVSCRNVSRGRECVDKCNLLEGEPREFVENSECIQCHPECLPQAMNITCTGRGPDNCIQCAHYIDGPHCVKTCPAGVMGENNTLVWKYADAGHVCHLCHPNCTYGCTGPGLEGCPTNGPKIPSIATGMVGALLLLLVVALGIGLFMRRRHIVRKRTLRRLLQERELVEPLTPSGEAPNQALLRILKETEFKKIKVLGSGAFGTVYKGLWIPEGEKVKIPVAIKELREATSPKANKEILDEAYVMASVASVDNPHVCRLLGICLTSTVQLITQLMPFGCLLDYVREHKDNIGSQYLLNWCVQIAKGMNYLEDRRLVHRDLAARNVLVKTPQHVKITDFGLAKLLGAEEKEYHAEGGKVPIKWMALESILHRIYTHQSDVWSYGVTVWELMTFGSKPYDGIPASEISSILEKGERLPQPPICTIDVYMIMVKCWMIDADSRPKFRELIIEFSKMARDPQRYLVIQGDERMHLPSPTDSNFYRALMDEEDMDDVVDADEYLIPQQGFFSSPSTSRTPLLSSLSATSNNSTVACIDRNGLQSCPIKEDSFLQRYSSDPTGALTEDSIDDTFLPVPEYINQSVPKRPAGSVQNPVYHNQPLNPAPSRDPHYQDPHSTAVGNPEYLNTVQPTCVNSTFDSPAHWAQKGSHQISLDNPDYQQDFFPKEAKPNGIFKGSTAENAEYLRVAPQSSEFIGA
Description: as §1, §2, §3

SMILES	pIC50 [1]	GI50 [2]	GI50 [3]	IC50 ([1]; A-431, 72 h, read-out: A431 IC50 (nM))
CN(C)C/C=C/C(=O)Nc1cccc(N2C(=O)N(Cc3ccccc3)Cc3cnc(Nc4cnn5cccnc45)nc32)c1 [Compound 90, (E)-N-(3-(3-benzyl-2-oxo-7-(pyrazolo[1,5-a]pyrimidin-3-ylamino)-3,4-dihydropyrimido[4,5-d]pyrimidin-1(2H)-yl)phenyl)-4-(dimethylamino)but-2-enamide]	≤ 5.00	1.85 µM	1.15 µM	–
CN(C)C/C=C/C(=O)Nc1cccc(N2C(=O)N(Cc3ccccc3)Cc3cnc(Nc4cn(C)nc4C(F)F)nc32)c1 [Compound 94, (E)-N-(3-(3-benzyl-7-((3-(difluoromethyl)-1-methyl-1H-pyrazol-4-yl)amino)-2-oxo-3,4-dihydropyrimido[4,5-d]pyrimidin-1(2H)-yl)phenyl)-4-(dimethylamino)but-2-enamide]	≤ 5.00	0.043 µM	0.039 µM	–
COCCn1cc(Nc2ncc3c(n2)N(c2cccc(NC(=O)/C=C/CN(C)C)c2)C(=O)N(Cc2ccccc2)C3)c(Cl)n1 [Compound 92, (E)-N-(3-(3-benzyl-7-((3-chloro-1-(2-methoxyethyl)-1H-pyrazol-4-yl)amino)-2-oxo-3,4-dihydropyrimido[4,5-d]pyrimidin-1(2H)-yl)phenyl)-4-(dimethylamino)but-2-enamide]	≤ 5.00	0.228 µM	0.385 µM	–
Cc1nocc1Nc1ncc2c(n1)N(c1cccc(NC(=O)/C=C/CN(C)C)c1)C(=O)N(Cc1ccccc1)C2 [Compound 60, (E)-N-(3-(3-benzyl-7-((3-methylisoxazol-4-yl)amino)-2-oxo-3,4-dihydropyrimido[4,5-d]pyrimidin-1(2H)-yl)phenyl)-4-(dimethylamino)but-2-enamide]	≤ 5.00	2.39 µM	1.7 µM	–
CN(C)C/C=C/C(=O)Nc1cccc(N2C(=O)N(Cc3ccc(F)cc3F)Cc3cnc(Nc4cn(C)nc4Cl)nc32)c1 [Compound 61, (E)-N-(3-(7-((3-chloro-1-methyl-1H-pyrazol-4-yl)amino)-3-(2,4-difluorobenzyl)-2-oxo-3,4-dihydropyrimido[4,5-d]pyrimidin-1(2H)-yl)phenyl)-4-(dimethylamino)but-2-enamide]	≤ 5.00	0.105 µM	0.058 µM	–
CN(C)C/C=C/C(=O)Nc1cccc(N2C(=O)N(Cc3ccccc3)Cc3cnc(Nc4cn(C)nc4Cl)cc32)c1 [Compound 64, (E)-N-(3-(3-benzyl-7-((3-chloro-1-methyl-1H-pyrazol-4-yl)amino)-2-oxo-3,4-dihydropyrido[4,3-d]pyrimidin-1(2H)-yl)phenyl)-4-(dimethylamino)but-2-enamide]	≤ 5.00	1.03 µM	0.809 µM	–
CN(C)C/C=C/C(=O)Nc1cccc(N2C(=O)N(Cc3ccc(F)cc3)Cc3cnc(Nc4cn(C)nc4Cl)nc32)c1 [Compound 57, (E)-N-(3-(7-((3-chloro-1-methyl-1H-pyrazol-4-yl)amino)-3-(4-fluorobenzyl)-2-oxo-3,4-dihydropyrimido[4,5-d]pyrimidin-1(2H)-yl)phenyl)-4-(dimethylamino)but-2-enamide]	≤ 5.00	0.476 µM	0.115 µM	–
CN(C)C/C=C/C(=O)Nc1cccc(N2C(=O)N(Cc3ccccc3)Cc3cnc(Nc4cnc(N5CCN(C)CC5)nc4)nc32)c1 [Compound 59, (E)-N-(3-(3-benzyl-7-((2-(4-methylpiperazin-1-yl)pyrimidin-5-yl)amino)-2-oxo-3,4-dihydropyrimido[4,5-d]pyrimidin-1(2H)-yl)phenyl)-4-(dimethylamino)but-2-enamide]	≤ 5.00	≥ 10 µM	8.66 µM	–
COC/C=C/C(=O)Nc1cccc(N2C(=O)N(Cc3ccccc3)Cc3cnc(Nc4cn(C)nc4Cl)nc32)c1 [Compound 76, (E)-N-(3-(3-benzyl-7-((3-chloro-1-methyl-1H-pyrazol-4-yl)amino)-2-oxo-3,4-dihydropyrimido[4,5-d]pyrimidin-1(2H)-yl)phenyl)-4-methoxybut-2-enamide]	≤ 5.00	0.342 µM	0.336 µM	–
CN(C)C/C=C/C(=O)Nc1cccc(N2C(=O)N(Cc3ccccc3)Cc3cnc(Nc4cnc(N5CCOCC5)nc4)nc32)c1 [Compound 55, (E)-N-(3-(3-benzyl-7-((2-morpholinopyrimidin-5-yl)amino)-2-oxo-3,4-dihydropyrimido[4,5-d]pyrimidin-1(2H)-yl)phenyl)-4-(dimethylamino)but-2-enamide]	≤ 5.00	3.86 µM	1.67 µM	–
C[C@@H](c1ccccc1)N1Cc2cnc(Nc3cnn(C)c3)nc2N(c2cccc(NC(=O)/C=C/CN(C)C)c2)C1=O (single isomer, unassigned) [Compound 134]	–	0.103 µM	0.109 µM	≥ 10000 nM
CN(C)C/C=C/C(=O)Nc1cccc(N2C(=O)N(Cc3ccccc3)Cc3cnc(Nc4ccc(N5CCOCC5)nc4)nc32)c1 [Compound 54, (E)-N-(3-(3-benzyl-7-((6-morpholinopyridin-3-yl)amino)-2-oxo-3,4-dihydropyrimido[4,5-d]pyrimidin-1(2H)-yl)phenyl)-4-(dimethylamino)but-2-enamide]	≤ 5.00	0.337 µM	0.224 µM	–
C=CC(=O)Nc1cc(N2C(=O)N(Cc3ccccc3)Cc3cnc(Nc4cn(C)nc4Cl)nc32)ccc1OC [Compound 77, N-(5-(3-benzyl-7-((3-chloro-1-methyl-1H-pyrazol-4-yl)amino)-2-oxo-3,4-dihydropyrimido[4,5-d]pyrimidin-1(2H)-yl)-2-methoxyphenyl)acrylamide]	≤ 5.00	9.13 µM	≥ 10 µM	–

More lines, main results first:

pIC50 [1]	GI50 [2]	GI50 [3]	SMILES	IC50 ([1]; A-431, 72 h, read-out: A431 IC50 (nM))
5.09	≥ 10 µM	≥ 10 µM	C=C(OC)C(=O)Nc1cccc(N2C(=O)N(c3ccccc3)Cc3cnc(Nc4cn(C)nc4Cl)nc32)c1 [Compound 127, N-(3-(7-((3-chloro-1-methyl-1H-pyrazol-4-yl)amino)-2-oxo-3-phenyl-3,4-dihydropyrimido[4,5-d]pyrimidin-1(2H)-yl)phenyl)-2-methoxyacrylamide]	–
≤ 5.00	9.26 µM	≥ 10 µM	C=CC(=O)Nc1ccccc1N1C(=O)N(c2ccccc2)Cc2cnc(Nc3cn(C)nc3Cl)nc21 [Compound 130, N-(2-(7-((3-chloro-1-methyl-1H-pyrazol-4-yl)amino)-2-oxo-3-phenyl-3,4-dihydropyrimido[4,5-d]pyrimidin-1(2H)-yl)phenyl)acrylamide]	–
5.19	0.097 µM	0.106 µM	CN(C)C/C=C/C(=O)Nc1cccc(N2C(=O)N(Cc3ccccc3)Cc3cnc(Nc4cn(C)nc4C(F)(F)F)nc32)c1 [Compound 95, (E)-N-(3-(3-benzyl-7-((1-methyl-3-(trifluoromethyl)-1H-pyrazol-4-yl)amino)-2-oxo-3,4-dihydropyrimido[4,5-d]pyrimidin-1(2H)-yl)phenyl)-4-(dimethylamino)but-2-enamide]	–
≤ 5.00	0.224 µM	0.269 µM	COc1ncccc1Nc1ncc2c(n1)N(c1cccc(NC(=O)/C=C/CN(C)C)c1)C(=O)N(Cc1ccccc1)C2 [Compound 103, (E)-N-(3-(3-benzyl-7-((2-methoxypyridin-3-yl)amino)-2-oxo-3,4-dihydropyrimido[4,5-d]pyrimidin-1(2H)-yl)phenyl)-4-(dimethylamino)but-2-enamide trifluoroacetate salt]	–
≤ 5.00	4.07 µM	> 9.35 µM	CN(C)C/C=C/C(=O)Nc1cccc(N2C(=O)N(Cc3ccccc3)Cc3cnc(Nc4ccncc4)nc32)c1 [Compound 96, (E)-N-(3-(3-benzyl-2-oxo-7-(pyridin-4-ylamino)-3,4-dihydropyrimido[4,5-d]pyrimidin-1(2H)-yl)phenyl)-4-(dimethylamino)but-2-enamide]	–
≤ 5.00	0.145 µM	0.115 µM	CN(C)C/C=C/C(=O)Nc1cccc(N2C(=O)N(Cc3ccccc3)Cc3cnc(Nc4ccc5c(ccn5C)c4)nc32)c1 [Compound 99, (E)-N-(3-(3-benzyl-7-((1-methyl-1H-indol-5-yl)amino)-2-oxo-3,4-dihydropyrimido[4,5-d]pyrimidin-1(2H)-yl)phenyl)-4-(dimethylamino)but-2-enamide]	–
